Experimental data published in the supplement of paper PMC10331698.
± gives the standard deviation of the averaged measurements.

Experiments:
Assay in all cases: level (log10 ratio to DMSO vehicle control); higher = higher biomarker level / cell amount than vehicle control
Settings in all cases: in DMSO
[1] = compound: COC(=O)CCC(F)(F)C(F)(F)C(F)(F)C(F)(F)F [Methyl 2H,2H,3H,3H-perfluoroheptanoate]
Method: (§1)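 BioMAP Diversity Plus panel of 12 human primary cell co-culture systems (3C, 4H, LPS, SAg, BT, BF4T, BE3C, CASM3C, HDF3CGF, KF3CT, MyoF, Mphg). Compounds were added 1 h before stimulation and left for 24 h (MyoF 48 h; BT 72 h for soluble read-outs or 6 d for IgG). Biomarkers were read by ELISA, cytotoxicity by SRB, PBMC viability and proliferation by Alamar Blue. Each well value was divided by the mean of 8 DMSO control wells on the same plate and log10 transformed; duplicate blinded samples were tested at 4 concentrations.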

[2] = compound: FC(F)(F)C(F)(C(F)(F)F)C(F)(F)C(F)(F)CC1CO1 [3-(Perfluoro-3-methylbutyl)-1,2-propenoxide]
Method: as §1

Perfluoro-1-iodohexane = compound: FC(F)(F)C(F)(F)C(F)(F)C(F)(F)C(F)(F)C(F)(F)I [Perfluoro-1-iodohexane]
Method: as §1

[3] = compound: FC(F)(F)C(F)(F)C(F)(F)C(F)(F)C(F)(F)CCI [1-Iodo-1H,1H,2H,2H-perfluoroheptane]
Method: as §1

[4] = compound: NCC(F)(F)C(F)(F)C(F)(F)C(F)(F)C(F)(F)C(F)(F)C(F)(F)F [1H,1H-Perfluorooctylamine]
Method: as §1

Perfluoroheptanoic acid = compound: O=C(O)C(F)(F)C(F)(F)C(F)(F)C(F)(F)C(F)(F)C(F)(F)F [Perfluoroheptanoic acid]
Method: as §1

Perfluoropropanoic acid = compound: O=C(O)C(F)(F)C(F)(F)F [Perfluoropropanoic acid]
Method: as §1

HDF3CGF:M-CSF
level (log10) ([1]; 6700 nM): -0.0125 ± 0.0064 | level (log10) ([1]; 20000 nM): -0.008 ± 0.013 | level (log10) ([1]; 60000 nM): 0.002 ± 0.011 | level (log10) ([2]; 6700 nM): -0.0115 ± 0.018 | level (log10) ([2]; 20000 nM): -0.0145 ± 0.012 | level (log10) (Perfluoro-1-iodohexane; 6700 nM): 0.0155 ± 0.019 | level (log10) (Perfluoro-1-iodohexane; 20000 nM): 0.024 ± 0.0028 | level (log10) (Perfluoro-1-iodohexane; 60000 nM): -0.021 ± 0.034 | level (log10) ([3]; 6700 nM): -0.0275 ± 0.053 | level (log10) ([3]; 20000 nM): -0.0415 ± 0.011 | level (log10) ([3]; 60000 nM): -0.198 ± 0.11 | level (log10) ([4]; 6700 nM): -0.0255 ± 0.0064 | level (log10) ([4]; 20000 nM): -0.031 ± 0.061 | level (log10) ([4]; 60000 nM): -0.027 ± 0.069 | level (log10) (Perfluoroheptanoic acid; 6700 nM): -0.009 ± 0.0099 | level (log10) (Perfluoroheptanoic acid; 20000 nM): 0.0025 ± 0.015 | level (log10) (Perfluoroheptanoic acid; 60000 nM): 0.01 ± 0.0014 | level (log10) (Perfluoropropanoic acid; 6700 nM): 0.0065 ± 0.067 | level (log10) (Perfluoropropanoic acid; 20000 nM): -0.042 ± 0.027 | level (log10) (Perfluoropropanoic acid; 60000 nM): -0.0295 ± 0.042

KF3CT:CD54/ICAM-1
level (log10) ([1]; 6700 nM): 0.005 ± 0.0028 | level (log10) ([1]; 20000 nM): 0.021 ± 0.024 | level (log10) ([1]; 60000 nM): -0.01 ± 0.04 | level (log10) ([2]; 6700 nM): 0.0055 ± 0.011 | level (log10) ([2]; 20000 nM): -0.0105 ± 0.0064 | level (log10) (Perfluoro-1-iodohexane; 6700 nM): 0.001 ± 0.0085 | level (log10) (Perfluoro-1-iodohexane; 20000 nM): 0.008 ± 0.021 | level (log10) (Perfluoro-1-iodohexane; 60000 nM): 0 ± 0.011 | level (log10) ([3]; 6700 nM): 0.0015 ± 0.019 | level (log10) ([3]; 20000 nM): -0.0045 ± 0.00071 | level (log10) ([3]; 60000 nM): -0.0165 ± 0.0021 | level (log10) ([4]; 6700 nM): 0 | level (log10) ([4]; 20000 nM): 0.0015 ± 0.005 | level (log10) ([4]; 60000 nM): 0.011 ± 0.0057 | level (log10) (Perfluoroheptanoic acid; 6700 nM): -0.023 ± 0.0042 | level (log10) (Perfluoroheptanoic acid; 20000 nM): -0.0085 ± 0.0035 | level (log10) (Perfluoroheptanoic acid; 60000 nM): -0.0315 ± 0.00071 | level (log10) (Perfluoropropanoic acid; 6700 nM): -0.0135 ± 0.0092 | level (log10) (Perfluoropropanoic acid; 20000 nM): -0.0015 ± 0.0021 | level (log10) (Perfluoropropanoic acid; 60000 nM): 0.004 ± 0.0028

KF3CT:CXCL9/MIG
level (log10) ([1]; 6700 nM): -0.003 ± 0.0057 | level (log10) ([1]; 20000 nM): 0.004 ± 0.0042 | level (log10) ([1]; 60000 nM): -0.02 ± 0.0028 | level (log10) ([2]; 6700 nM): 0.005 ± 0.014 | level (log10) ([2]; 20000 nM): 0.001 ± 0.013 | level (log10) (Perfluoro-1-iodohexane; 6700 nM): -0.002 | level (log10) (Perfluoro-1-iodohexane; 20000 nM): -0.0125 ± 0.00071 | level (log10) (Perfluoro-1-iodohexane; 60000 nM): 0.0025 ± 0.012 | level (log10) ([3]; 6700 nM): 0.003 ± 0.0014 | level (log10) ([3]; 20000 nM): 0.003 | level (log10) ([3]; 60000 nM): 0.006 ± 0.0014 | level (log10) ([4]; 6700 nM): 0 ± 0.0057 | level (log10) ([4]; 20000 nM): 0.0005 ± 0.018 | level (log10) ([4]; 60000 nM): -0.005 ± 0.0099 | level (log10) (Perfluoroheptanoic acid; 6700 nM): -0.0085 ± 0.005 | level (log10) (Perfluoroheptanoic acid; 20000 nM): -0.0015 ± 0.0035 | level (log10) (Perfluoroheptanoic acid; 60000 nM): 0.011 ± 0.013 | level (log10) (Perfluoropropanoic acid; 6700 nM): -0.007 ± 0.0071 | level (log10) (Perfluoropropanoic acid; 20000 nM): -0.005 ± 0.017 | level (log10) (Perfluoropropanoic acid; 60000 nM): -0.0095 ± 0.021

BE3C:Keratin 8/18
level (log10) ([1]; 6700 nM): -0.0225 ± 0.005 | level (log10) ([1]; 20000 nM): 0.0015 ± 0.015 | level (log10) ([1]; 60000 nM): -0.0165 ± 0.018 | level (log10) ([2]; 6700 nM): 0.0005 ± 0.03 | level (log10) ([2]; 20000 nM): 0.001 ± 0.03 | level (log10) (Perfluoro-1-iodohexane; 6700 nM): -0.007 ± 0.037 | level (log10) (Perfluoro-1-iodohexane; 20000 nM): -0.0105 ± 0.0078 | level (log10) (Perfluoro-1-iodohexane; 60000 nM): 0.005 ± 0.024 | level (log10) ([3]; 6700 nM): -0.019 ± 0.02 | level (log10) ([3]; 20000 nM): -0.009 ± 0.034 | level (log10) ([3]; 60000 nM): -0.02 ± 0.0071 | level (log10) ([4]; 6700 nM): -0.009 ± 0.0071 | level (log10) ([4]; 20000 nM): -0.024 ± 0.0099 | level (log10) ([4]; 60000 nM): -0.0005 ± 0.0078 | level (log10) (Perfluoroheptanoic acid; 6700 nM): -0.0135 ± 0.005 | level (log10) (Perfluoroheptanoic acid; 20000 nM): -0.0135 ± 0.0078 | level (log10) (Perfluoroheptanoic acid; 60000 nM): -0.0025 ± 0.012 | level (log10) (Perfluoropropanoic acid; 6700 nM): -0.0185 ± 0.0064 | level (log10) (Perfluoropropanoic acid; 20000 nM): -0.016 ± 0.028 | level (log10) (Perfluoropropanoic acid; 60000 nM): 0.017 ± 0.023

MyoF:TIMP-1
level (log10) ([1]; 6700 nM): -0.0585 ± 0.047 | level (log10) ([1]; 20000 nM): -0.02 ± 0.035 | level (log10) ([1]; 60000 nM): 0.01 ± 0.014 | level (log10) ([2]; 6700 nM): -0.0165 ± 0.022 | level (log10) ([2]; 20000 nM): -0.047 ± 0.052 | level (log10) (Perfluoro-1-iodohexane; 6700 nM): 0.036 ± 0.0085 | level (log10) (Perfluoro-1-iodohexane; 20000 nM): 0.0395 ± 0.011 | level (log10) (Perfluoro-1-iodohexane; 60000 nM): -0.058 ± 0.0014 | level (log10) ([3]; 6700 nM): 0.0095 ± 0.0064 | level (log10) ([3]; 20000 nM): -0.009 ± 0.0028 | level (log10) ([3]; 60000 nM): -0.038 ± 0.025 | level (log10) ([4]; 6700 nM): 0.0045 ± 0.0092 | level (log10) ([4]; 20000 nM): 0.01 ± 0.025 | level (log10) ([4]; 60000 nM): -0.0005 ± 0.0021 | level (log10) (Perfluoroheptanoic acid; 6700 nM): -0.011 ± 0.0042 | level (log10) (Perfluoroheptanoic acid; 20000 nM): 0.0225 ± 0.0021 | level (log10) (Perfluoroheptanoic acid; 60000 nM): 0.0515 ± 0.0064 | level (log10) (Perfluoropropanoic acid; 6700 nM): 0.0645 ± 0.077 | level (log10) (Perfluoropropanoic acid; 20000 nM): 0.05 ± 0.047 | level (log10) (Perfluoropropanoic acid; 60000 nM): 0.0465 ± 0.12

CASM3C:HLA-DR
level (log10) ([1]; 6700 nM): -0.0185 ± 0.005 | level (log10) ([1]; 20000 nM): -0.014 ± 0.018 | level (log10) ([1]; 60000 nM): -0.011 ± 0.028 | level (log10) ([2]; 6700 nM): -0.0105 ± 0.026 | level (log10) ([2]; 20000 nM): -0.0185 ± 0.0092 | level (log10) (Perfluoro-1-iodohexane; 6700 nM): 0.0075 ± 0.0092 | level (log10) (Perfluoro-1-iodohexane; 20000 nM): 0.004 ± 0.0057 | level (log10) (Perfluoro-1-iodohexane; 60000 nM): 0.0095 ± 0.022 | level (log10) ([3]; 6700 nM): -0.006 ± 0.0099 | level (log10) ([3]; 20000 nM): -0.0055 ± 0.0064 | level (log10) ([3]; 60000 nM): -0.009 ± 0.021 | level (log10) ([4]; 6700 nM): -0.01 ± 0.0028 | level (log10) ([4]; 20000 nM): -0.0085 ± 0.032 | level (log10) ([4]; 60000 nM): 0.029 ± 0.0042 | level (log10) (Perfluoroheptanoic acid; 6700 nM): -0.009 ± 0.0085 | level (log10) (Perfluoroheptanoic acid; 20000 nM): -0.0315 ± 0.005 | level (log10) (Perfluoroheptanoic acid; 60000 nM): -0.004 ± 0.052 | level (log10) (Perfluoropropanoic acid; 6700 nM): 0.015 ± 0.023 | level (log10) (Perfluoropropanoic acid; 20000 nM): -0.013 ± 0.011 | level (log10) (Perfluoropropanoic acid; 60000 nM): 0.0365 ± 0.0021
